Experimental data taken from US10568879B2 (GALAPAGOS NV, priority 2015, dated 2020).

How the values were obtained:
[1] = target: T1, GPR84 (Homo sapiens, UniProt Q9NQS5); assay: GPR84 [35S]GTPγS binding assay; format: biochemical; conditions: 3,3′-diindolylmethane at EC80; membranes from stable cell line over expressing GPR84
T1 construct: expressed in transfected cells
In short: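 Antagonist-mode [35S]GTPγS binding on membranes from a GPR84-overexpressing stable line (GDP-preincubated), stimulated with 3,3′-diindolylmethane at EC80. Buffer 20 mM Tris pH 7.5, 5 mM MgCl2, 250 mM NaCl, saponin; 0.1 nM [35S]GTPγS, 90 min at room temperature, SPA bead read-out.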

[2] = tested on: human neutrophils; assay: Human neutrophil migration assay; format: cell-based; conditions: for IC50: Homo sapiens, Neutrophil, embelin at EC80 as chemotactic agent, 1 h at 37° C., read-out: Human neutrophil migration IC50
Method: The activity of GPR84 agonists and antagonists can therefore be assayed in a human neutrophil migration assay. The human neutrophil migration assay makes use of freshly isolated human neutrophils from buffy coats that are subsequently used in a functional chemotaxis assay setup. […] After 1 h of incubation at 37° C. and 5% CO2, the number of migrated neutrophils in the lower compartment can be quantified by measuring the ATP content using ATPlite™ Luminescence Assay System. A human buffy coat suspension is diluted with an equal volume of ice cold DPBS. 20 mL of the diluted buffy coat suspension is gently mixed with 4 mL of ACD buffer (140 mM citric acid, 200 mM sodium citrate and 220 mM dextrose). Then, 12 mL of a 6% dextran/0.9% NaCl solution (15 g dextran T2000 and 2.25 g NaCl dissolved in 250 mL H2O) is added to the mixture and the samples are inverted gently up to 20 times. The total volume is transferred to a new recipient and incubated at room temperature to allow sedimentation of red blood cells. The yellowish upper fraction is then transferred to a clean centrifugation tube and centrifuged for 12 min at 1300 rpm and 4° C. After centrifugation, the supernatant is discarded and the remaining cell pellet is rapidly resuspended in 12 mL of ice-cold H2O to perform a red blood cell lysis by osmotic burst. After 20 seconds, 4 mL of ice-cold 0.6 M KCl is added to restore salt concentration. Samples are mixed carefully and centrifuged for 6 min at 1300 rpm and 4° C. The supernatant is discarded and the red blood cell lysis procedure is repeated one more time. […] A neutrophil cell suspension of 8.9×10^6 cells per mL is prepared in chemotaxis buffer and 180 μL per well is plated in a 96-well V-bottom plate. 20 μL of test compound solution in chemotaxis buffer is added to the 180 μL cell suspension. The mixture is incubated at room temperature for 30 min with intermediate gentle resuspension of the cells after 15 min. […] After 1 h at 37° C., 5% CO2 in a humidified incubator, the upper plate of the Transwell® system is gently removed. […] After incubation, 270 μL of cell lysate is then transferred onto a white 96-well plate for quantification by a luminescence plate reader. The relative luminescent signal measured is considered linearly related to the number of cells having migrated from the upper compartment into the receiver well.

T1 sequence (Q9NQS5 whole entry): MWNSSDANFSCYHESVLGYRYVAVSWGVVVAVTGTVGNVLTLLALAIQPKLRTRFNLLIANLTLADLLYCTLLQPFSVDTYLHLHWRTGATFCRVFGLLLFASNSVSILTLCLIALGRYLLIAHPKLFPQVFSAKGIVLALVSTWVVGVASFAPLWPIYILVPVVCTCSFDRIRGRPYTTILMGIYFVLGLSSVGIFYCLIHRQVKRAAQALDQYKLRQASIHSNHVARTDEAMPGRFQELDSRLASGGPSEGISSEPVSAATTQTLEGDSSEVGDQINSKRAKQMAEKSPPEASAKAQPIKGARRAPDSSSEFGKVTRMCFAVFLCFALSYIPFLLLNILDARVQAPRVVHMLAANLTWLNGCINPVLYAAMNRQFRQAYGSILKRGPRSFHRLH

**Q.** Which results are given for `Cc1c2n(c(OC[C@@H]3COCCO3)cc1=O)CCc1cc(NC(=O)C3CC3)ccc1-2` [Compound 70, N-[4-[[(2S)-1,4-dioxan-2-yl]methoxy]-1-methyl-2-oxo-6,7-dihydrobenzo[a]quinolizin-9-yl]cyclopropanecarboxamide]?
**A.** IC50 [1]: 0.01 to 100 nM; IC50 [2]: 0.01 to 100 nM

**Q.** For `Cc1c2n(c(OCC3CCCO3)cc1=O)CCc1cc(OCc3ccccn3)ccc1-2` (stereo not drawn) [Compound 45, 1-methyl-9-(2-pyridylmethoxy)-4-(tetrahydrofuran-2-ylmethoxy)-6,7-dihydrobenzo[a]quinolizin-2-one], which IC50 [1] is on record?
**A.** The IC50 was 0.01 to 100 nM.

**Q.** And the IC50 [2]?
**A.** Its IC50 is 100 to 500 nM.

**Q.** Which results are given for `Cc1c2n(c(NCC3CCCCO3)cc1=O)CCc1cc(OCC(F)(F)F)ccc1-2` (stereo not drawn) [Compound 14, 1-methyl-4-(tetrahydropyran-2-ylmethylamino)-9-(2,2,2-trifluoroethoxy)-6,7-dihydrobenzo[a]quinolizin-2-one]?
**A.** IC50 [1]: 0.01 to 100 nM; IC50 [2]: 0.01 to 100 nM

**Q.** What does the source list for `Cc1c2n(c(OC[C@@H]3COCCO3)cc1=O)CCc1cc(C#N)ccc1-2` [Compound 25, 4-[[(1S)-1,4-dioxan-2-yl]methoxy]-1-methyl-2-oxo-6,7-dihydrobenzo[a]quinolizine-9-carbonitrile]?
**A.** IC50 [1]: 500 to 1000 nM; IC50 [2]: > 1000 nM

**Q.** `Cc1c2n(c(OC[C@@H]3COCCO3)cc1=O)CCc1cc(N3CCN(C(=O)OC(C)(C)C)CC3)ccc1-2` [Compound 60, tert-butyl 4-[4-[[(2S)-1,4-dioxan-2-yl]methoxy]-1-methyl-2-oxo-6,7-dihydrobenzo[a]quinolizin-9-yl]piperazine-1-carboxylate] was tested. Which IC50 [2] did it give?
**A.** The IC50 was 0.01 to 100 nM.

**Q.** Which IC50 [1] does the source give for `CCc1c2n(c(NCC3CCCO3)cc1=O)CCc1cc(OCC(F)F)ccc1-2` (stereo not drawn) [Compound 26, 9-(2,2-difluoroethoxy)-1-ethyl-4-(tetrahydrofuran-2-ylmethylamino)-6,7-dihydrobenzo[a]quinolizin-2-one] here?
**A.** The IC50 was 500 to 1000 nM.

**Q.** And the IC50 [2]?
**A.** Its IC50 is 500 to 1000 nM.

**Q.** With `COc1c(OCC(F)F)ccc2c1CCn1c(NCC3CCCO3)cc(=O)c(C)c1-2` (stereo not drawn) [Compound 24, 9-(2,2-Difluoro-ethoxy)-8-methoxy-1-methyl-4-[(tetrahydro-furan-2-ylmethyl)-amino]-6,7-dihydro-pyrido[2,1-a]isoquinolin-2-one] as the compound, how does the IC50 [1] read?
**A.** The IC50 was 0.01 to 100 nM.

**Q.** What about the IC50 [2] of the same compound?
**A.** Its IC50 is 100 to 500 nM.

**Q.** Which results are given for `Cc1c2n(c(NCC3CCCO3)cc1=O)CCc1cc(OC3CCCO3)ccc1-2` (stereo not drawn) [Compound 9, -Methyl-4-[(tetrahydro-furan-2-ylmethyl)-amino]-9-(tetrahydro-furan-2-yloxy)-6,7-dihydro-pyrido[2,1-a]isoquinolin-2-one]?
**A.** IC50 [1]: 100 to 500 nM; IC50 [2]: 100 to 500 nM

**Q.** Which IC50 [1] does the source give for `Cc1c2n(c(OC[C@@H]3COCCO3)cc1=O)CCc1cc(C3=CCOCC3)ccc1-2` [Compound 39, 9-(3,6-dihydro-2H-pyran-4-yl)-4-[[(2S)-1,4-dioxan-2-yl]methoxy]-1-methyl-6,7-dihydrobenzo[a]quinolizin-2-one] here?
**A.** The IC50 was 100 to 500 nM.

**Q.** And the IC50 [2]?
**A.** Its IC50 is 0.01 to 100 nM.

**Q.** With `Cc1c2n(c(OC[C@@H]3COCCO3)cc1=O)CCc1cc(OCC3CCCOC3)ccc1-2` (stereo partly drawn) [Compound 49, 4-[[(2S)-1,4-dioxan-2-yl]methoxy]-1-methyl-9-(tetrahydropyran-3-ylmethoxy)-6,7-dihydrobenzo[a]quinolizin-2-one] as the compound, how does the IC50 [1] read?
**A.** The IC50 was 0.01 to 100 nM.

**Q.** And the IC50 [2]?
**A.** Its IC50 is 0.01 to 100 nM.

**Q.** `Cc1c2n(c(OC[C@@H]3COCCO3)cc1=O)CCc1cc(C3CN(C(=O)OC(C)(C)C)C3)ccc1-2` [Compound 71, tert-butyl 3-[4-[[(2S)-1,4-dioxan-2-yl]methoxy]-1-methyl-2-oxo-6,7-dihydrobenzo[a]quinolizin-9-yl]azetidine-1-carboxylate] was tested. Which IC50 [2] did it give?
**A.** The IC50 was 0.01 to 100 nM.

**Q.** What does the source list for `Cc1c2n(c(OC[C@@H]3COCCO3)cc1=O)CCc1cc(N3CCOCC3)ccc1-2` [Compound 63, 4-[[(2S)-1,4-dioxan-2-yl]methoxy]-1-methyl-9-morpholino-6,7-dihydrobenzo[a]quinolizin-2-one]?
**A.** IC50 [1]: 0.01 to 100 nM; IC50 [2]: 100 to 500 nM

**Q.** Which IC50 [1] does the source give for `Cc1noc(COc2ccc3c(c2)CCn2c(OC[C@@H]4COCCO4)cc(=O)c(C)c2-3)n1` [Compound 58, 4-[[(2S)-1,4-dioxan-2-yl]methoxy]-1-methyl-9-[(3-methyl-1,2,4-oxadiazol-5-yl)methoxy]-6,7-dihydrobenzo[a]quinolizin-2-one] here?
**A.** The IC50 was 0.01 to 100 nM.

**Q.** And the IC50 [2]?
**A.** Its IC50 is 0.01 to 100 nM.

**Q.** `Cc1c2n(c(OCC3CCCCO3)cc1=O)CCc1cc(OCC3CCCOC3)ccc1-2` (stereo not drawn) [Compound 48, 1-methyl-4-(tetrahydropyran-2-ylmethoxy)-9-(tetrahydropyran-3-ylmethoxy)-6,7-dihydrobenzo[a]quinolizin-2-one] was tested. Which IC50 [1] did it give?
**A.** Its IC50 is 0.01 to 100 nM.

**Q.** And the IC50 [2]?
**A.** The IC50 was 0.01 to 100 nM.

**Q.** Which IC50 [1] does the source give for `Cc1ccc(COc2ccc3c(c2)CCn2c(OCC4CCCO4)cc(=O)c(C)c2-3)cn1` (stereo not drawn) [Compound 50, 1-methyl-9-[(6-methyl-3-pyridyl)methoxy]-4-(tetrahydrofuran-2-ylmethoxy)-6,7-dihydrobenzo[a]quinolizin-2-one] here?
**A.** The IC50 was 0.01 to 100 nM.

**Q.** What about the IC50 [2] of the same compound?
**A.** Its IC50 is 0.01 to 100 nM.

**Q.** How did the IC50 [1] turn out when `COc1cc2c(cc1OC)-c1c(C)c(=O)cc(NC[C@@H]3COCCO3)n1CC2` [Compound 6, 4-[[(2R)-1,4-dioxan-2-yl]methylamino]-9,10-dimethoxy-1-methyl-6,7-dihydrobenzo[a]quinolizin-2-one] was run?
**A.** The IC50 was 500 to 1000 nM.

**Q.** What about the IC50 [2] of the same compound?
**A.** Its IC50 is > 1000 nM.

**Q.** Which results are given for `COc1c(O)ccc2c1CCn1c(NCC3COCCO3)cc(=O)cc1-2` (stereo not drawn) [Compound 21, 4-(1,4-dioxan-2-ylmethylamino)-9-hydroxy-8-methoxy-6,7-dihydrobenzo[a]quinolizin-2-one]?
**A.** IC50 [1]: > 1000 nM; IC50 [2]: > 1000 nM

**Q.** For `Cc1ccc(COc2ccc3c(c2)CCn2c(OCC4CCCCO4)cc(=O)c(C)c2-3)cn1` (stereo not drawn) [Compound 51, 1-methyl-9-[(6-methyl-3-pyridyl)methoxy]-4-(tetrahydropyran-2-ylmethoxy)-6,7-dihydrobenzo[a]quinolizin-2-one], which IC50 [1] is on record?
**A.** Its IC50 is 0.01 to 100 nM.

**Q.** And the IC50 [2]?
**A.** The IC50 was 0.01 to 100 nM.

**Q.** Which results are given for `Cc1c2n(c(NC[C@@H]3CCCO3)cc1=O)CCc1cc(OCC(F)(F)F)ccc1-2` [Compound 42, 1-methyl-4-[[(2S)-tetrahydrofuran-2-yl]methylamino]-9-(2,2,2-trifluoroethoxy)-6,7-dihydrobenzo[a]quinolizin-2-one]?
**A.** IC50 [1]: 0.01 to 100 nM; IC50 [2]: 0.01 to 100 nM

**Q.** `Cc1noc(COc2ccc3c(c2)CCn2c(OCC4CCCO4)cc(=O)c(C)c2-3)n1` (stereo not drawn) [Compound 43, 1-methyl-9-[(3-methyl-1,2,4-oxadiazol-5-yl)methoxy]-4-(tetrahydrofuran-2-ylmethoxy)-6,7-dihydrobenzo[a]quinolizin-2-one] was tested. Which IC50 [1] did it give?
**A.** The IC50 was 0.01 to 100 nM.

**Q.** And the IC50 [2]?
**A.** The IC50 was 0.01 to 100 nM.

**Q.** `Cc1c2n(c(OCC3CCCCO3)cc1=O)CCc1cc(OCc3ccccn3)ccc1-2` (stereo not drawn) [Compound 46, 1-methyl-9-(2-pyridylmethoxy)-4-(tetrahydropyran-2-ylmethoxy)-6,7-dihydrobenzo[a]quinolizin-2-one] was tested. Which IC50 [1] did it give?
**A.** Its IC50 is 0.01 to 100 nM.

**Q.** What about the IC50 [2] of the same compound?
**A.** Its IC50 is 0.01 to 100 nM.

**Q.** For `COc1cc2c(cc1OC)-c1cc(=O)cc(NCC3CCCO3)n1CC2` (stereo not drawn) [Compound 4, 9,10-Dimethoxy-4-[(tetrahydro-furan-2-ylmethyl)-amino]-6,7-dihydro-pyrido[2,1-a]isoquinolin-2-one], which IC50 [1] is on record?
**A.** Its IC50 is > 1000 nM.

**Q.** What about the IC50 [2] of the same compound?
**A.** Its IC50 is > 1000 nM.

**Q.** With `Cc1c2n(c(NC[C@@H]3COCCO3)cc1=O)CCc1cc(OCc3ccccc3)ccc1-2` [Compound 34, 9-benzyloxy-4-[[(2R)-1,4-dioxan-2-yl]methylamino]-1-methyl-6,7-dihydrobenzo[a]quinolizin-2-one] as the compound, how does the IC50 [2] read?
**A.** The IC50 was 0.01 to 100 nM.

**Q.** For `Cc1c2n(c(OCC3COCCO3)cc1=O)CCc1cc(OCC(F)(F)F)ccc1-2` (stereo not drawn) [Compound 90, 4-(1,4-dioxan-2-ylmethoxy)-1-methyl-9-(2,2,2-trifluoroethoxy)-6,7-dihydrobenzo[a]quinolizin-2-one], which IC50 [2] is on record?
**A.** Its IC50 is 0.01 to 100 nM.

**Q.** For `CCCCCCCCCC(=O)[O-].[Na+]` [sodium decanoate, reference compound], which “neutrophil chemotaxis induced by GPR84 agonists” value [2] is on record?
**A.** Its value is “induce neutrophil chemotaxis”.

**Q.** Which “neutrophil chemotaxis induced by GPR84 agonists” value [2] does the source give for `CCCCCCCCCCC(=O)[O-].[Na+]` [sodium undecanoate, reference compound] here?
**A.** The value was “induce neutrophil chemotaxis”.

**Q.** Which IC50 [2] does the source give for `Cc1ccc(COc2ccc3c(c2)CCn2c(OC[C@@H]4COCCO4)cc(=O)c(C)c2-3)cn1` [Compound 52, 4-[[(2S)-1,4-dioxan-2-yl]methoxy]-1-methyl-9-[(6-methyl-3-pyridyl)methoxy]-6,7-dihydrobenzo[a]quinolizin-2-one] here?
**A.** Its IC50 is 0.01 to 100 nM.

**Q.** How did the IC50 [2] turn out when `Cc1c2n(c(OC[C@@H]3COCCO3)cc1=O)CCc1cc(OCCOC(F)(F)F)ccc1-2` [Compound 72, 4-[[(2S)-1,4-dioxan-2-yl]methoxy]-1-methyl-9-[2-(trifluoromethoxy)ethoxy]-6,7-dihydrobenzo[a]quinolizin-2-one] was run?
**A.** The IC50 was 0.01 to 100 nM.
